We go through eleven compounds from patent US8618286B2, “Benzoxazines, benzothiazines, and related compounds having NOS inhibitory activity” (NeurAxon, Inc., priority 2008, dated 2013).

Common to all, as to format: biochemical
The target in assay [1] is Recombinant human inducible NOS (iNOS) (Homo sapiens (Human), UniProt P35228). Nature of the assay: Human iNOS enzyme assay (Protocol 1 or Protocol 2, radiometric). The method, then: The human iNOS assay was carried by either one of the two protocols as described herein:
Recombinant human inducible NOS (iNOS) was produced in Baculovirus-infected Sf9 cells (ALEXIS). In a radiometric method, NO synthase activity was determined by measuring the conversion of [^3H]L-arginine to [^3H]L-citrulline. To measure iNOS, 10 μL of enzyme was added to 100 μL of 100 mM HEPES, pH=7.4, containing 1 mM CaCl2, 1 mM EDTA, 1 mM dithiothreitol, 1 μM FMN, 1 μM FAD, 10 μM tetrahydrobiopterin, 120 μM NADPH, and 100 nM CaM.
To measure enzyme inhibition, a 15 μL solution of a test substance was added to the enzyme assay solution, followed by a pre-incubation time of 15 min at RT. The reaction was initiated by addition of 20 μL L-arginine containing 0.25 μCi of [^3H] arginine/mL and 24 μM L-arginine. The total volume of the reaction mixture was 150 μL in every well. The reactions were carried out at 37° C. for 45 minutes, The reaction was stopped by adding 20 μL of ice-cold buffer containing 100 mM HEPES, 3 mM EGTA, 3 mM EDTA, pH=5.5. [^3H]L-citrulline was separated by DOWEX (ion-exchange resin DOWEX 50 W×8-400, SIGMA) and the DOWEX was removed by spinning at 12,000 g for 10 min in the centrifuge. An aliquot (70 μL) of the supernatant was added to 100 μL of scintillation fluid, and the samples were counted in a liquid scintillation counter (1450 Microbeta Jet, Wallac). Specific NOS activity was reported as the difference between the activity recovered from the test solution and that observed in a control sample containing 240 mM of the inhibitor L-NMMA. All assays were performed at least in duplicate. Standard deviations are 10% or less.
Primary stock solutions of each test compound were prepared in distilled water on the day of study to obtain a final concentration of 6 mM. For the determination of IC50 values, 11 test compound concentrations were prepared as 3-fold serial dilutions. Test compounds were tested in the iNOS assay at a concentration of 1000 μM to 0.0169 μM. The vehicle of the test compound or inhibitor, distilled water, was used as blank control. For non-specific activity, 100 μM L-NMMA was run in parallel as a control.
All incubations were performed in duplicate
The reaction mixture was prepared on ice by the addition of the following components to the appropriate well of a 1.0 mL 96-well polypropylene plate:
10 μL of test compound, reference inhibitor, or control (vehicle or L-NMMA) solution;
25 μL of Reaction Buffer (50 mM Tris-HCl, 6 μM BH4, 2 μM FMN, 2 μM FAD);
5 μL of 10 mM NADPH solution;
5 μL of 1 μM Calmodulin; and
The reaction mixture was pre-incubated at room temperature for 15 minutes. Following this pre-incubation, the reaction was initiated by the addition of 5 μL of the substrate L-arginine (1 μCi of [^3H]-L-Arginine+30 μM of unlabeled L-Arginine) to the reaction mixture. The total reaction volume was 60 μL. The assay plate containing the reaction mixtures was sealed and incubated at 37° C. for 30 minutes. At the end of this incubation period, 400 μL of ice-cold Stop Buffer (the EDTA in the Stop Buffer chelates all of the available calcium) was added to each well to stop the reaction. 100 μL of equilibrated resin pH 5.5 was added to each of the assay wells. The reaction samples were vortexed and transferred to spin cups, after-which they were centrifuged at 13,000 rpm for 30 sec. The spin cups were removed from the holder and […] (containing the unbound L-citrulline) were added to the appropriate wells of a 96-well liquid scintillation plate. 175 μL of scintillation fluid were also added to each well. The plate was sealed, and radioactivity was quantitated using a Microbeta liquid scintillation counter.
Data were analyzed using a Sigmoidal dose-response (variable slope) curve to determine the IC50 value of the test compound. Y=Bottom+(Top−Bottom)/(1+10^((Log IC50−X)*Hill Slope))

For assay [2], the target named is Nitric oxide synthase (endothelial, human recombinant) eNOS (Homo sapiens (Human), UniProt P29474). Nature of the assay: Human eNOS enzyme assay ([3H]-L-arginine to L-citrulline conversion). The method, then: (§1) nNOS (Human), eNOS (Human) and iNOS (Human) Enzyme Assay
(§2) Primary stock solutions of test compounds at a concentration of 6 mM were prepared from the 2 to 5 mg powder. The primary stock solutions of each test compound were prepared freshly in distilled water on the day of study to obtain a final concentration of 6 mM. For determination of IC50 values, 12 test compound concentrations were prepared as 3-fold serial dilutions. Concentration range of test compound utilized for nNOS were 0.001 to 300 μM and for eNOS were 0.003 to 1000 μM. The vehicle of the test compound or inhibitor was used as blank control. For non-specific activity, 100 μM L-NMMA was used. Runs using the IC50 concentration of L-NAME were done in parallel as controls.
(§3) All incubations are performed in duplicate
(§4) The reaction mixture was prepared on ice by adding the following components with a micropipette to a polypropylene microcentrifuge tube: • 10 μL of test compound, inhibitor or control (vehicle or L-NMMA) solution; • 25 μL of Reaction Buffer {25 mM Tris-HCl, 0.6 μM BH4, 0.2 μM FMN, 0.2 μM FAD}; • 5 μL of 10 mM NADPH solution {1 mM} (freshly prepared in 10 mM Tris-HCl (pH 7.4); • 5 μL of 6 mM CaCl2 {600 W}; • 5 μL of 1 mM Calmodulin {100 W}; and • 5 μL of 0.02 μg/μL nNOS or 0.12 μg/μL eNOS.
(§5) The above reaction mixture was pre-incubated at room temperature for 15 mins.
(§6) The reaction was started by the addition of the substrate (in 5 μL containing 1 μCi of [^3H]-L-Arginine+2.5 μM of unlabeled L-Arginine) to the reaction mixture. Total reaction volume is 60 μL.
(§7) The reaction was mixed using a vortex mixer and incubate the above reaction mixture at 37° C. in an incubator for 30 minutes.
(§8) To stop the reaction, 400 μL of ice-cold Stop Buffer was added at the end of the incubation period.
(§9) The reaction was then mixed using a vortex mixer, and the reaction samples were transferred to spin cups, which were centrifuged using a microcentrifuge, at 13,000 rpm for 30 sec. at room temperature.
(§10) The spin cups were removed from the holder, 450 μL of eluate (containing the unbound L-citrulline) were transferred to scintillation vials. 3 mL of scintillation fluid were added and the radioactivity was quantified in a liquid scintillation counter.
(§11) Data was analyzed using a Sigmoidal dose-response (variable slope) curve to determine the IC50 value of the test compound. Y=Bottom+(Top−Bottom)/(1+10^((Log IC50−X)*Hill Slope))

In assay [3] the target is Nitric oxide synthase (neuronal, human recombinant) nNOS (Homo sapiens (Human), UniProt P29475). Nature of the assay: Human nNOS enzyme assay ([3H]-L-arginine to L-citrulline conversion). Particulars: for Selectivity eNOS/nNOS: ratio of human eNOS IC50 to human nNOS IC50; for IC50: recombinant human nNOS. The method, then:
as §1, §2, §3, §4, §5, §6, §7, §8, §9, §10, §11

Structures can show the parent of a compound that is named as a salt.

On to `CN(C)CCN1C(=O)COc2cc(NC(=N)c3cccs3)ccc21` [Compound 5, N-(4-(2-(Dimethylamino)ethyl)-3-oxo-3,4-dihydro-2H-benzo[b][1,4]oxazin-7-yl)thiophene-2-carboximidamide], for which the values for the IC50 in assay [1], in assay [2] and in assay [3] were over 100 µM, 47 µM and 1.84 µM, respectively. Besides, the “Selectivity eNOS/nNOS” value in assay [3] was 25.5.

As for `CN1CCCC1CCN1CCOc2cc(NC(=N)c3cccs3)ccc21` (centres unmarked) [Compound 2], the “Selectivity eNOS/nNOS” value in assay [3] worked out at 25.3.

As to `CN(CCN1CCSc2cc(NC(=N)c3cccs3)ccc21)CC(=O)O` [Compound 17, 2-(methyl(2-(7-(thiophene-2-carboximidamido)-2H-benzo[b][1,4]thiazin-4(3H)-yl)ethyl)amino)acetic acid dihydrochloride], the values for the IC50 in assay [1], in assay [2] and in assay [3] were 241 µM, 10.9 µM and 1.16 µM, respectively. Besides, the “Selectivity eNOS/nNOS” value in assay [3] worked out at 9.3.

For `N=C(Nc1ccc2c(c1)OCCN2CCN1CCCC1)c1cccs1` [Compound 4, N-(4-(2-(pyrrolidin-1-yl)ethyl)-3,4-dihydro-2H-benzo[b][1,4]oxazin-7-yl)thiophene-2-carboximidamide], the values for the half-maximal inhibitory concentration (IC50) in assay [1], in assay [2] and in assay [3] were 2.7 µM, 25.1 µM and 0.41 µM, respectively. For the same compound, the “Selectivity eNOS/nNOS” value in assay [3] came out at 61.2.

As for `CN(C)CCN1CCOc2ccc(NC(=N)c3cccs3)cc21` [Compound 9, N-(4-(2-(dimethylamino)ethyl)-3,4-dihydro-2H-benzo[b][1,4]oxazin-6-yl)-thiophene-2-carboximidamide], the results for the 50% inhibitory concentration (IC50) in assay [1], in assay [2] and in assay [3] were 7.25 µM, 36.5 µM and 0.2 µM, respectively. The “Selectivity eNOS/nNOS” value in assay [3] came out at 182.5.

Regarding `CCN(CC)CCN1CCSc2cc(NC(=N)c3cccs3)ccc21` [Compound 15, N-(4-(2-(Diethylamino)ethyl)-3,4-dihydro-2H-benzo[b][1,4]thiazin-7-yl)thiophene-2-carboximidamide], the values for the IC50 in assay [1], in assay [2] and in assay [3] were 40.7 µM, 20.1 µM and 0.15 µM, respectively. For the same compound, the “Selectivity eNOS/nNOS” value in assay [3] amounted to 134.

`N=C(Nc1ccc2c(c1)SCCN2CCN1CCCC1)c1cccs1` [Compound 11, N-(4-(2-(pyrrolidin-1-yl)ethyl)-3,4-dihydro-2H-benzo[b][1,4]thiazin-7-yl)thiophene-2-carboximidamide]: the IC50 (usually the concentration that inhibits the measured activity by half) was found to be 117 µM in assay [1], 24.4 µM in assay [2] and 0.24 µM in assay [3]. In addition, the “Selectivity eNOS/nNOS” value in assay [3] was 101.6.

For the compound `N=C(Nc1ccc2c(c1)N(C1CCNCC1)CCS2)c1cccs1` [Compound 29, N-(4-(piperidin-4-yl)-3,4-dihydro-2H-benzo[b][1,4]thiazin-6-yl)thiophene-2-carboximidamide], the half-maximal inhibitory concentration (IC50) in assay [1] came out at 76.8 µM; in assay [2], 43.6 µM; in assay [3] it was 0.11 µM. Further, the “Selectivity eNOS/nNOS” value in assay [3] is listed as 396.

As to `CNCCN1CCSc2ccc(NC(=N)c3cccs3)cc21` [Compound 28, N-(4-(2-(methylamino)ethyl)-3,4-dihydro-2H-benzo[b][1,4]thiazin-6-yl)thiophene-2-carboximidamide], the half-inhibitory concentration (IC50) was found to be 348 µM in assay [1], 8.58 µM in assay [2] and 0.08 µM in assay [3]. Also, the “Selectivity eNOS/nNOS” value in assay [3] amounted to 107.2.

Take `CN1CCCC1CCN1CCSc2cc(NC(=N)c3cccs3)ccc21` (centres unmarked) [Compound 13, N-(4-(2-(1-methylpyrrolidin-2-yl)ethyl)-3,4-dihydro-2H-benzo[b][1,4]thiazin-7-yl)thiophene-2-carboximidamide]: the IC50 in assay [1] is 33.1 µM; in assay [2] it was 9.92 µM; in assay [3], 0.19 µM. Moreover, the “Selectivity eNOS/nNOS” value in assay [3] turned out to be 52.2.

With `CN1CCCC1CCN1C(=O)COc2cc(NC(=N)c3cccs3)ccc21` (centres unmarked) [Compound 1], the “Selectivity eNOS/nNOS” value in assay [3] is recorded as 41.9.
